Measurements taken from patent US9649303B2, “Methods and treatment for allergies and inflammation associated with gastrointestinal diseases” (MASTCELL PHARMACEUTICALS, INC., priority 2008, dated 2017).

Legend:
[1] = system: OVA sensitized female BALB/c mice; assay: Sensitization to new allergen in a model of pre-existing food allergy (Example 6); format: in vivo
Experimental: A study is conducted to determine whether atopic animals are more easily sensitized to a newly introduced allergen (e.g., hazel nut). Four groups of female BALB/c mice (7-8 weeks old) are sensitized by intraperitoneal (IP) injections 2 weeks apart with ovalbumin (OVA; 50 μg) in 1.3% aluminum hydroxide (200 μl) followed 2 weeks later by 7 seven intragastric challenges (every other day) with saline or 5, 10, or 50 mg OVA, a selected dose of hazel nut, or combination of OVA and hazelnut. Endpoints include observance of diarrhea after intragastric challenge, Serum total and antigen specific IgE and IgG 1, gut to body weight ratio, intestinal permeability, and histological evaluation are performed. […] A second experiment assesses the ability of ketotifen to inhibit the induction of allergy to a newly introduced food allergen in animals with a pre-existing gastrointestinal allergy. […] A group of BALB/c mice similarly sensitized to OVA, but continuing to receive intragastric hazel nut in the absence of intragastric OVA fails to develop an observable gastrointestinal allergy phenotype.

[2] = system: patients who have a diagnosis of eosinophilic esophagitis and food allergy; assay: Eosinophilic esophagitis: ketotifen oral tablet vs topical gel (Example 7); format: in vivo, human
Experimental: To evaluate the effectiveness of ketotifen in patients who have a diagnosis of eosinophilic esophagitis and food allergy, two groups of patients will be tested. One group is orally administered ketotifen at 0.5 mg, 1 mg, or 2 mg, twice daily as a tablet.

[3] = system: a patient with eosinophilic esophagitis; settings: elimination of diet including eggs, treatment with ketotifen and montelukast; cited from earlier work
[4] = system: PAF production; settings: cited from earlier work
[5] = system: patients undergoing desensitization to airborne allergen (ragweed); assay: One-day rush immunotherapy with short ragweed extract after ketotifen or placebo pretreatment (Example 2); format: in vivo, human; settings: ketotifen 1 mg b.i.d. plus ragweed immunotherapy vs immunotherapy alone
Experimental: To evaluate the effectiveness of mast cell stabilizer, e.g., ketotifen, in desensitization or immunotherapy, particularly RUSH immunotherapy, a randomized, double-blind, placebo-controlled study is performed. Patients are randomly assigned to 4 treatment groups (1:1:1:1). Pretreatment with either ketotifen, 1 mg, b.i.d., or placebo, is carried out for nine weeks to protect, prevent, inhibit or ameliorate allergic reaction, particularly to prevent, normalize or ameliorate gastrointestinal symptoms. One-day rush immunotherapy (week 0) is completed at least 3 weeks before the start of the ragweed season. On the day of rush immunotherapy, the patients receive 6 injections of either placebo or aqueous short ragweed extract. Ragweed dosing starts with a diluted extract containing 0.012 μg of Amb a 1 (a major allergen in ragweed) over a 3-hour period, reaching a maximum of 1.2 μg of Amb a 1. […]
The efficacy end point is determined by comparing the average daily allergy severity scores (measured on a scale of 0-3) between patients receiving ketotifen plus immunotherapy versus those who receive just immunotherapy alone. The score is calculated from the average of individual scores for symptoms of gastrointestinal disorders, e.g., abdominal pain, nausea, diarrhea, and/or heartburn.

[6] = system: patients who have a history of GERD, unresponsive to conventional proton pump inhibitors or antacids; assay: GERD patients unresponsive to proton pump inhibitors or antacids: ketotifen vs omeprazole (Example 5); format: in vivo, human; settings: ketotifen 0.5 mg, 1 mg, 2 mg twice daily or omeprazole 1×20 mg/d
Experimental: To evaluate the effectiveness of ketotifen in patients who have a history of GERD, but are unresponsive to conventional proton pump inhibitors or antacids, two groups of patients are tested as similar to Example 4. One group is administered ketotifen at 0.5 mg, 1 mg, 2 mg, twice daily. The second group is treated with omeprazole, 1×20 mg/d. Sera IgE are evaluated before and after administration of ketotifen or omeprazole and gastrointestinal symptoms are recorded based on severity and frequency of symptoms.

[7] = system: eosinophils; settings: cited from earlier work
[8] = system: patients with a history of hazelnut allergy; assay: Oral food challenge with hazelnut flour under ketotifen or placebo (Example 1); format: in vivo, human
Experimental: Twenty-four patients with adverse food reaction are included in this study. As controls, twelve patients matched for age and gender and a history of GERD (Group A) and another twelve patients matched for age and gender and no history of any gastrointestinal disorder (Group B) are included. The history of use of antacids and satisfaction are recorded for both groups.
To analyze hypersensitivity to hazelnut, a double-blind, randomized, dose-ranging study is carried out with patients with a history of hazelnut allergy manifested by urticaria, angioedema, respiratory tract symptoms or hypotension generally using the methods described in Israel et al., Am. J. Respir. Crit. Care Med., (2000) 164:75-80. Eligible patients include those with serum total IgE level of 30-1000 IU/mL and/or a positive skin-prick test to hazelnut. […]
Before enrollment, threshold level for reactivity to hazelnut allergen is confirmed by a screening double-blind, placebo-controlled oral food challenge. […] Vital signs are checked, chest auscultation is performed, and peak expiratory flow rates are monitored every 30 minutes during the food challenge and for at least 2 hours after the last dose or the abatement of any symptoms or signs. […]
Peak expiratory flow rates are monitored every 30 minutes during food challenge for at least 2 hours after the last does or abatement of any symptoms or signs. […]

[9] = system: patients undergoing desensitization to oral allergen (hazelnut); assay: Desensitization to oral allergen with hazelnut extract plus ketotifen (Example 3); format: in vivo, human; settings: ketotifen plus hazelnut extract immunotherapy vs immunotherapy alone
Excerpt: To evaluate the efficacy of ketotifen in desensitization process against oral allergen such as hazelnut, a similar study as described in Example […] may be carried out except with the use of hazelnut extract rather than ragweed extract.

[10] = system: adult patients who have a history of GERD; assay: GERD patients on omeprazole, ketotifen or both: GI symptoms and allergen-specific serum IgE (Example 4); format: in vivo, human
Experimental: The following study may be carried out to analyze the effectiveness of mast cell stabilizer in treating gastrointestinal disorders and/or as a prophylaxis against the development of allergy in patients at risk of developing sensitivity to such allergen, e.g., sensitivity to hazelnut, when exposed to it.
Sera of nine adult patients who have a history of GERD are collected. None of the patients report adverse reactions to inhalant or food allergens; however, IgE immunoblots are performed to screen their allergic state. Three patients from Group A are administered a proton pump inhibitor, e.g, omeprazole (Group A-1). Three patients from Group A are administered an oral dose of 0.5, 1, or 2 mg of ketotifen orally twice daily (Group A-2). […]
Serum IgE and Skin Tests in Patients: Sera are tested for allergen-specific IgE against hazelnut and inhalative allergens from tree pollen (eg, birch, hazel, and alder), grass pollen, weed pollen, molds, house dust mites, insect venoms, and animal dander. […] Additionally, total IgE is determined before and at the 3-mo time point. […]
Gastrointestinal Symptoms: Symptoms of gastrointestinal side effects such as GERD, nausea, abdominal pain, vomiting, gastritis and/or dyspepsia are recorded based on the severity and frequency of the symptoms. […]

[11] = system: sensitization to previously tolerated ovalbumin; settings: co-administered with ovalbumin; via elevation of the gastric pH; cited from earlier work

Row | Molecule | development of new sensitivity to hazel nut ([1]; OVA sensitized mice receiving intragastric hazelnut with ketotifen or OVA plus hazelnut with ketotifen) | gastrointestinal allergy phenotype upon OVA intragastric challenge ([1]; female BALB/c mice sensitized to OVA) | patient-reported symptoms ([2]; ketotifen 0.5 mg, 1 mg or 2 mg twice daily as oral tablet) | overall effectiveness compared between formulations ([2]; oral tablet vs topical gel vs topical corticosteroids) | blood eosinophilia ([2]; oral tablet, blood analysis) | eosinophils, mast cells and degranulation in esophageal biopsies ([2]; oral tablet, compared to pre-treatment biopsies) | clinical outcome [3] | PAF production [4] | adverse events of gastrointestinal disorders [5] | allergy severity scores ([5]; scale of 0-3) | GERD symptoms [6] | allergen specific IgE in blood sera [6] | eosinophil chemotaxis [7] | reflux symptom reporting during the study ([8]; GERD patients, Group A1 (ketotifen) vs Group A2 (placebo)) | tolerance (severity of reaction) to hazelnut upon oral ingestion ([8]; ketotifen 0.5, 1 or 2 mg orally twice daily, Group A-1 and B-1 compared to placebo groups A-2 and B-2, challenge at two, four and six weeks) | adverse events of gastrointestinal disorders [9] | allergy severity scores [9] | hazelnut-specific (and other allergen specific) IgE in blood sera ([10]; after onset of treatment, Groups A-1, A-2, A-3) | GERD symptoms ([10]; omeprazole 1×20 mg/d (A-1), ketotifen 0.5, 1 or 2 mg orally twice daily (A-2), both (A-3)) | sensitization to previously tolerated ovalbumin [11]
1 | CN1CCC(=C2c3ccccc3CC(=O)c3sccc32)CC1 [ketotifen] | fail to develop new sensitivity to hazel nut | significantly suppresses the gastrointestinal allergy phenotype | partial improvement of symptoms | inferior to those observed with the topical gel formulation | decreased eosinophilia | fewer numbers of eosinophils and mast cells and less degranulation | clinical relief | suppresses PAF production | fewer adverse events of gastrointestinal disorders | significantly improved allergy severity scores | improved GERD symptoms | few new allergen specific IgE | inhibiting chemotaxis | significantly lower | significant increased tolerance | fewer adverse events of gastrointestinal disorders | significantly improved allergy severity scores | improved GERD symptoms and hazelnut-specific IgE | improved GERD symptoms | –
2 | sucralfate | – | – | – | – | – | – | – | – | – | – | – | – | – | – | – | – | – | – | – | caused sensitization to previously tolerated ovalbumin
